The values below come from patent publication US11000033B2, “Ketone or oxime compound, and herbicide” (NISSAN CHEMICAL CORPORATION, priority 2014, dated 2021).

Common to all, as to assay type: in vivo
The test system of one data set is Scirpus juncoides. Description: Test Example 1: herbicidal activity, application before weed generation in submerged conditions (symbol B). Particulars: application herbicide amount 320 g/ha. Put shortly: (§1)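 Mixed weed seeds sown in alluvial soil under 4 cm of water, with rice seedlings at the 2.5-leaf stage added. Same-day treatment: emulsion diluted to a set herbicide amount onto the water. Three weeks at 25–30 °C, then graded on a six-step scale.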

The next data set has as its system Monochoria vaginalis. Put plainly: Test Example 1: herbicidal activity, application before weed generation in submerged conditions (symbol C). The settings on record: application herbicide amount 320 g/ha. Put shortly: as §1
Another data set deals with Cyperus difformis. Description: Test Example 3: herbicidal effect by foliage application, Wagner pot (symbol E). The settings on record: application herbicide amount 320 g/ha. A digest of the protocol:
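Steps: fill pot with alluvial soil; add water to 0.1–0.5 cm depth; sow weed and rice seed; grow 14 days at 25–30 °C; spray diluted emulsion over the leaves; rate effect after 3 weeks.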

In the next data set the test system is Amaranthus retroflexus. Description: Test Example 4: herbicidal effect by soil treatment (symbol N). The settings on record: 320 g/ha. Put shortly: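 Seeds were sown in sterilized diluvial soil, covered with about 1.5 cm of soil, and the soil surface was sprayed with a water-diluted emulsion of the compound at a predetermined rate. Plants grew in a greenhouse at 25° C. to 30° C.; effects were scored visually 3 weeks after application.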

The test system of another data set is corn. Description: Test Example 4: effect on crop by soil treatment (symbol c). Particulars: 320 g/ha. A digest of the protocol: (§2)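 Crop seed is sown in spots together with several weed species in a box of sterilized diluvial soil. It is covered by about 1.5 cm of soil and kept in a greenhouse held between 25° C. and 30° C.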
Data set [1] deals with beet. Put plainly: Test Example 4: effect on crop by soil treatment (symbol f). Particulars: 320 g/ha. A digest of the protocol:
as §2

Data set [2] deals with rapeseed. Put plainly: Test Example 4: effect on crop by soil treatment (symbol g). Particulars: 320 g/ha. A digest of the protocol:
as §2

Another data set deals with Setaria viridis. Description: Test Example 5: herbicidal effect by foliage application, plastic box (symbol G). Particulars: 320 g/ha, 3 weeks after application. Put shortly: (§3)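 Emulsion formulation, diluted with water to the intended rate, was applied uniformly to leaves by small sprayer. Recipients were 14-day greenhouse-grown seedlings (25° C. to 30° C.). Assessment followed at 3 weeks.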

The next data set concerns Lolium multiflorum Lam. Put plainly: Test Example 5: herbicidal effect by foliage application, plastic box (symbol K). The settings on record: 320 g/ha, 3 weeks after application. A digest of the protocol:
as §3

Another data set relates to Apera spica-venti. Put plainly: Test Example 5: herbicidal effect by foliage application, plastic box (symbol L). The settings on record: 320 g/ha, 3 weeks after application. A digest of the protocol:
as §3

Another data set relates to wheat. Put plainly: Test Example 5: effect on crop by foliage application, plastic box (symbol e). The settings on record: 320 g/ha, 3 weeks after application. A digest of the protocol:
(§4)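 In a plastic box 7 cm deep filled with sterilized diluvial soil, seeds of crops and weeds such as Digitaria ciliaris, Avena fatua and Amaranthus retroflexus are sown in spots and covered with about 1.5 cm of soil before greenhouse growth at 25–30° C.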

For data set [3], the system named is beet. Put plainly: Test Example 5: effect on crop by foliage application, plastic box (symbol f). The settings on record: 320 g/ha, 3 weeks after application. A digest of the protocol: as §4
Data set [4] has as its system rapeseed. Put plainly: Test Example 5: effect on crop by foliage application, plastic box (symbol g). The settings on record: 320 g/ha, 3 weeks after application. Put shortly: as §4

Each structure is given as a SMILES string.

Take `CON=C(C)CC1CC(OC(=O)c2cc(C)on2)=C(c2c(C)cc(C)cc2C)C1=O` (centres unmarked) [1-100]: in the data set with Scirpus juncoides, the “Herbicidal effect grade, B: Scirpus juncoides” value (“Herbicidal effect grade, B” below) is listed as 5 (Herbicidal ratio of 90% or more (almost completely withered)). The “Herbicidal effect grade, C: Monochoria vaginalis” value (“Herbicidal effect grade, C” below) with Monochoria vaginalis was 3 (Herbicidal ratio of 40% or higher and lower than 70%). The “herbicidal effect on E, grade 0-5” value with Cyperus difformis is given as 5 (Herbicidal ratio of 90% or more (almost completely withered)). For the same compound, the “N: Amaranthus retroflexus, herbicidal effect grade” value (“N: Amaranthus retroflexus” below) with Amaranthus retroflexus is 2 (Herbicidal ratio of 20% or higher and lower than 40%). Moreover, in the data set on corn, the “c: corn, effect grade on crop” value was 5 (Herbicidal ratio of 90% or more (almost completely withered)). The “f: beet, effect grade on crop” value with beet [1] is on record as 0 (Herbicidal ratio of 5% or lower (almost no effect)). Also, the “g: rapeseed, effect grade on crop” value with rapeseed [2] is 3 (Herbicidal ratio of 40% or higher and lower than 70%). Also, the “G: Setaria viridis, herbicidal effect (criteria 0-5)” value (shortened to “G: Setaria viridis”) in the data set with Setaria viridis was 5 (Herbicidal ratio of 90% or more (almost completely withered)). Further, the “K: Lolium multiflorum Lam., herbicidal effect (criteria 0-5)” value in the data set with Lolium multiflorum Lam. was 5 (Herbicidal ratio of 90% or more (almost completely withered)). In addition, the “L: Apera spica-venti, herbicidal effect (criteria 0-5)” value (from here on “L: Apera spica-venti”) in the data set on Apera spica-venti is on record as 5 (Herbicidal ratio of 90% or more (almost completely withered)). Also, the “e: wheat, effect on crop (criteria 0-5)” value in the data set on wheat was 5 (Herbicidal ratio of 90% or more (almost completely withered)). For the same compound, the “f: beet, effect on crop (criteria 0-5)” value with beet [3] was 0 (Herbicidal ratio of 5% or lower (almost no effect)). Besides, the “g: rapeseed, effect on crop (criteria 0-5)” value (shortened to “g: rapeseed, effect on crop”) in the data set with rapeseed [4] is reported as 5 (Herbicidal ratio of 90% or more (almost completely withered)).

Regarding `CON=C(C)CC1CC(OC(=O)c2cnoc2C2CC2)=C(c2c(C)cc(C)cc2C)C1=O` (centres unmarked) [1-103], the “Herbicidal effect grade, B” value in the data set with Scirpus juncoides is 5 (Herbicidal ratio of 90% or more (almost completely withered)). The “Herbicidal effect grade, C” value in the data set with Monochoria vaginalis is 1 (Herbicidal ratio of 5% or higher and lower than 20%). In addition, in the data set with Cyperus difformis, the “herbicidal effect on E, grade 0-5” value is 5 (Herbicidal ratio of 90% or more (almost completely withered)). Further, in the data set on Amaranthus retroflexus, the “N: Amaranthus retroflexus” value is reported as 5 (Herbicidal ratio of 90% or more (almost completely withered)). Moreover, in the data set with corn, the “c: corn, effect grade on crop” value is 5 (Herbicidal ratio of 90% or more (almost completely withered)). Further, in the data set on beet [1], the “f: beet, effect grade on crop” value is 0 (Herbicidal ratio of 5% or lower (almost no effect)). For the same compound, the “g: rapeseed, effect grade on crop” value with rapeseed [2] was 3 (Herbicidal ratio of 40% or higher and lower than 70%). Moreover, in the data set with Setaria viridis, the “G: Setaria viridis” value was 5 (Herbicidal ratio of 90% or more (almost completely withered)). The “K: Lolium multiflorum Lam., herbicidal effect (criteria 0-5)” value with Lolium multiflorum Lam. is on record as 5 (Herbicidal ratio of 90% or more (almost completely withered)). In addition, in the data set with Apera spica-venti, the “L: Apera spica-venti” value is 5 (Herbicidal ratio of 90% or more (almost completely withered)). Moreover, in the data set with wheat, the “e: wheat, effect on crop (criteria 0-5)” value was 5 (Herbicidal ratio of 90% or more (almost completely withered)). Moreover, the “f: beet, effect on crop (criteria 0-5)” value with beet [3] is 0 (Herbicidal ratio of 5% or lower (almost no effect)). Besides, the “g: rapeseed, effect on crop” value in the data set with rapeseed [4] was 4 (Herbicidal ratio of 70% or higher and lower than 90%).

For `CON=C(C)CC1CC(OC(=O)N2CCOCC2)=C(c2c(C)cc(C)cc2C)C1=O` (centres unmarked) [1-104], in the data set on Scirpus juncoides, the “Herbicidal effect grade, B” value was 4 (Herbicidal ratio of 70% or higher and lower than 90%). For the same compound, the “Herbicidal effect grade, C” value in the data set with Monochoria vaginalis was 1 (Herbicidal ratio of 5% or higher and lower than 20%). Further, the “herbicidal effect on E, grade 0-5” value in the data set on Cyperus difformis is listed as 5 (Herbicidal ratio of 90% or more (almost completely withered)). The “N: Amaranthus retroflexus” value with Amaranthus retroflexus is listed as 0 (Herbicidal ratio of 5% or lower (almost no effect)). The “c: corn, effect grade on crop” value in the data set with corn is 1 (Herbicidal ratio of 5% or higher and lower than 20%). In addition, the “f: beet, effect grade on crop” value in the data set on beet [1] was 0 (Herbicidal ratio of 5% or lower (almost no effect)). In addition, the “g: rapeseed, effect grade on crop” value in the data set with rapeseed [2] was 2 (Herbicidal ratio of 20% or higher and lower than 40%). The “G: Setaria viridis” value in the data set on Setaria viridis is on record as 5 (Herbicidal ratio of 90% or more (almost completely withered)). In addition, the “K: Lolium multiflorum Lam., herbicidal effect (criteria 0-5)” value in the data set with Lolium multiflorum Lam. is recorded as 5 (Herbicidal ratio of 90% or more (almost completely withered)). Besides, in the data set on Apera spica-venti, the “L: Apera spica-venti” value was 5 (Herbicidal ratio of 90% or more (almost completely withered)). Moreover, the “e: wheat, effect on crop (criteria 0-5)” value in the data set with wheat is 0 (Herbicidal ratio of 5% or lower (almost no effect)). Also, the “f: beet, effect on crop (criteria 0-5)” value in the data set with beet [3] is reported as 0 (Herbicidal ratio of 5% or lower (almost no effect)). Also, the “g: rapeseed, effect on crop” value in the data set on rapeseed [4] was 4 (Herbicidal ratio of 70% or higher and lower than 90%).

`CCCCCCCCS(=O)(=O)OC1=C(c2c(C)cc(C)cc2C)C(=O)C(CC(C)=NOC)C1` (centres unmarked) [1-107]: the “Herbicidal effect grade, B” value in the data set with Scirpus juncoides is 4 (Herbicidal ratio of 70% or higher and lower than 90%). In addition, the “Herbicidal effect grade, C” value with Monochoria vaginalis was 1 (Herbicidal ratio of 5% or higher and lower than 20%). The “herbicidal effect on E, grade 0-5” value in the data set on Cyperus difformis is recorded as 5 (Herbicidal ratio of 90% or more (almost completely withered)). The “N: Amaranthus retroflexus” value with Amaranthus retroflexus is 0 (Herbicidal ratio of 5% or lower (almost no effect)). Moreover, the “c: corn, effect grade on crop” value with corn is reported as 0 (Herbicidal ratio of 5% or lower (almost no effect)). The “f: beet, effect grade on crop” value in the data set on beet [1] is reported as 0 (Herbicidal ratio of 5% or lower (almost no effect)). In addition, the “g: rapeseed, effect grade on crop” value in the data set on rapeseed [2] was 2 (Herbicidal ratio of 20% or higher and lower than 40%). Moreover, the “G: Setaria viridis” value in the data set with Setaria viridis was 5 (Herbicidal ratio of 90% or more (almost completely withered)). Further, the “K: Lolium multiflorum Lam., herbicidal effect (criteria 0-5)” value in the data set with Lolium multiflorum Lam. is given as 5 (Herbicidal ratio of 90% or more (almost completely withered)). For the same compound, in the data set with Apera spica-venti, the “L: Apera spica-venti” value is on record as 5 (Herbicidal ratio of 90% or more (almost completely withered)). Besides, in the data set with wheat, the “e: wheat, effect on crop (criteria 0-5)” value was 2 (Herbicidal ratio of 20% or higher and lower than 40%). The “f: beet, effect on crop (criteria 0-5)” value with beet [3] is 0 (Herbicidal ratio of 5% or lower (almost no effect)). For the same compound, in the data set with rapeseed [4], the “g: rapeseed, effect on crop” value is 4 (Herbicidal ratio of 70% or higher and lower than 90%).

In the case of `CON=C(C)CC1CC(OC(=O)N(C)C)=C(c2c(C)cc(C)cc2C)C1=O` (centres unmarked) [1-108], the “Herbicidal effect grade, B” value with Scirpus juncoides was 4 (Herbicidal ratio of 70% or higher and lower than 90%). In addition, the “Herbicidal effect grade, C” value in the data set with Monochoria vaginalis was 3 (Herbicidal ratio of 40% or higher and lower than 70%). Besides, in the data set on Cyperus difformis, the “herbicidal effect on E, grade 0-5” value is recorded as 5 (Herbicidal ratio of 90% or more (almost completely withered)). Also, in the data set with Amaranthus retroflexus, the “N: Amaranthus retroflexus” value is 0 (Herbicidal ratio of 5% or lower (almost no effect)). In addition, the “c: corn, effect grade on crop” value with corn was 5 (Herbicidal ratio of 90% or more (almost completely withered)). Further, in the data set with beet [1], the “f: beet, effect grade on crop” value is listed as 0 (Herbicidal ratio of 5% or lower (almost no effect)). Further, the “g: rapeseed, effect grade on crop” value in the data set with rapeseed [2] was 4 (Herbicidal ratio of 70% or higher and lower than 90%). Besides, the “G: Setaria viridis” value in the data set on Setaria viridis is 5 (Herbicidal ratio of 90% or more (almost completely withered)). For the same compound, in the data set with Lolium multiflorum Lam., the “K: Lolium multiflorum Lam., herbicidal effect (criteria 0-5)” value is reported as 5 (Herbicidal ratio of 90% or more (almost completely withered)). Also, in the data set on Apera spica-venti, the “L: Apera spica-venti” value is 5 (Herbicidal ratio of 90% or more (almost completely withered)). Moreover, in the data set on wheat, the “e: wheat, effect on crop (criteria 0-5)” value was 3 (Herbicidal ratio of 40% or higher and lower than 70%). Moreover, the “f: beet, effect on crop (criteria 0-5)” value in the data set with beet [3] is 1 (Herbicidal ratio of 5% or higher and lower than 20%). For the same compound, the “g: rapeseed, effect on crop” value in the data set on rapeseed [4] is 4 (Herbicidal ratio of 70% or higher and lower than 90%).
